# In patent publication US20230278983A1, “INDOLE DERIVATIVES AND USES THEREOF FOR TREATING A CANCER” (Universite Claude Bernard Lyon 1, priority 2020, published 2023):
# Target: CK2 (Homo sapiens (Human), UniProt P68400)
# Experiment: Radiometric CK2 kinase assay
# Format: biochemical
# Settings: not given
# Sequence of CK2 (P68400 whole entry): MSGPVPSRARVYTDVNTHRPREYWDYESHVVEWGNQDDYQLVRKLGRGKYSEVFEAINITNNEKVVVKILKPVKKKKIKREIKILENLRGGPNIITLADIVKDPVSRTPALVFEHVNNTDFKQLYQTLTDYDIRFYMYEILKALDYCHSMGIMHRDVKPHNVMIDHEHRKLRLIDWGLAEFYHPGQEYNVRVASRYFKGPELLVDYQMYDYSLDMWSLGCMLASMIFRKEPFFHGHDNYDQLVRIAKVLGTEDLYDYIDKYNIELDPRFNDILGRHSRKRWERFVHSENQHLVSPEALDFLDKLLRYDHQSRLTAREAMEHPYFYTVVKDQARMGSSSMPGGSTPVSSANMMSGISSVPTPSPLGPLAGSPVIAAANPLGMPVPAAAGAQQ
row,SMILES,IC50 [nM]
1,"CC(C)COC(=O)c1[nH]c2ccc(F)cc2c1-c1cn(CC2CCN(CCNS(=O)(=O)c3ccc(OC(F)(F)F)cc3)CC2)nn1 [AB912, isobutyl 5-fluoro-3-(1-((1-(2-((4-(trifluoromethoxy)phenyl)sulfonamido)ethyl)piperidin-4-yl)methyl)-1H-1,2,3-triazol-4-yl)-1H-indole-2-carboxylate]",300
2,"CC(C)COC(=O)c1[nH]c2ccc(F)cc2c1-c1cn(CC2CCN(CCNS(=O)(=O)c3ccc(-c4ccccc4)cc3)CC2)nn1 [AB913, isobutyl 3-(1-((1-(2-([1,1′-biphenyl]-4-sulfonamido)ethyl)piperidin-4-yl)methyl)-1H-1,2,3-triazol-4-yl)-5-fluoro-1H-indole-2-carboxylate]",80
3,"CC(C)COC(=O)c1[nH]c2ccc(F)cc2c1-c1cn(CC2CCN(CCNS(=O)(=O)c3ccc(C4CCCCC4)cc3)CC2)nn1 [AB914, isobutyl 3-(1-((1-(2-((4-cyclohexylphenyl)sulfonamido)ethyl)piperidin-4-yl)methyl)-1H-1,2,3-triazol-4-yl)-5-fluoro-1H-indole-2-carboxylate]",71
4,"CC(C)COC(=O)c1[nH]c2ccc(F)cc2c1-c1cn(CC2CCN(CCNS(=O)(=O)c3ccc(OC(C)C)cc3)CC2)nn1 [AB917, isobutyl 5-fluoro-3-(1-((1-(2-((4-isopropoxyphenyl)sulfonamido)ethyl)piperidin-4-yl)methyl)-1H-1,2,3-triazol-4-yl)-1H-indole-2-carboxylate]",600
5,"CC(C)COC(=O)c1[nH]c2ccc(F)cc2c1-c1cn(CC2CCN(CCNS(=O)(=O)c3ccc4c(c3)CCC4)CC2)nn1 [AB932, isobutyl 3-(1-((1-(2-((2,3-dihydro-1H-indene)-5-sulfonamido)ethyl)piperidin-4-yl)methyl)-1H-1,2,3-triazol-4-yl)-5-fluoro-1H-indole-2-carboxylate]",75
6,"CC(C)COC(=O)c1[nH]c2ccc(F)cc2c1-c1cn(CC2CCN(CCNS(=O)(=O)c3ccc(C(C)(C)C)cc3)CC2)nn1 [AB934, isobutyl 3-(1-((1-(2-((4-(tert-butyl)phenyl)sulfonamido)ethyl)piperidin-4-yl)methyl)-1H-1,2,3-triazol-4-yl)-5-fluoro-1H-indole-2-carboxylate]",52
7,"CC(C)COC(=O)c1[nH]c2ccc(F)cc2c1-c1cn(CC2CCN(CCNS(=O)(=O)c3ccc(-c4cn[nH]c4)cc3)CC2)nn1 [AB1032, isobutyl 3-(1-((1-(2-((4-(1H-pyrazol-4-yl)phenyl)sulfonamido)ethyl)piperidin-4-yl)methyl)-1H-1,2,3-triazol-4-yl)-5-fluoro-1H-indole-2-carboxylate]",200
8,"CC(C)COC(=O)c1[nH]c2ccc(F)cc2c1-c1cn(CC2CCN(CCNS(=O)(=O)c3ccc(C4=CCC(F)(F)CC4)cc3)CC2)nn1 [AB1070, isobutyl 3-(1-((1-(2-((4′,4′-difluoro-2′,3′,4′,5′-tetrahydro-[1,1′-biphenyl])-4-sulfonamido)ethyl)piperidin-4-yl)methyl)-1H-1,2,3-triazol-4-yl)-5-fluoro-1H-indole-2-carboxylate]",200
9,"CC(C)COC(=O)c1[nH]c2ccc(F)cc2c1-c1cn(CC2CCN(CCNS(=O)(=O)c3ccc(-c4ccoc4)cc3)CC2)nn1 [AB1071, isobutyl 5-fluoro-3-(1-((1-(2-((4-(furan-3-yl)phenyl)sulfonamido)ethyl)piperidin-4-yl)methyl)-1H-1,2,3-triazol-4-yl)-1H-indole-2-carboxylate]",65
10,"CC(C)COC(=O)c1[nH]c2ccc(F)cc2c1-c1cn(CC2CCN(CCNS(=O)(=O)c3ccc4c(c3)OCCCO4)CC2)nn1 [AB1072, isobutyl 3-(1-((1-(2-((3,4-dihydro-2H-benzo[b][1,4]dioxepine)-7-sulfonamido)ethyl)piperidin-4-yl)methyl)-1H-1,2,3-triazol-4-yl)-5-fluoro-1H-indole-2-carboxylate]",100
11,"CC(C)COC(=O)c1[nH]c2ccc(F)cc2c1-c1cn(CC2CCN(CCNS(=O)(=O)c3ccc(-c4cccnc4N4CCCC4)cc3)CC2)nn1 [AB1073, isobutyl 5-fluoro-3-(1-((1-(2-((4-(2-(pyrrolidin-1-yl)pyridin-3-yl)phenyl)sulfonamido)ethyl)piperidin-4-yl)methyl)-1H-1,2,3-triazol-4-yl)-1H-indole-2-carboxylate]",18
12,"CC(C)COC(=O)c1[nH]c2ccc(F)cc2c1-c1cn(CC2CCN(CCNS(=O)(=O)c3ccc(C4=CCOCC4)cc3)CC2)nn1 [AB1074, isobutyl 3-(1-((1-(2-((4-(3,6-dihydro-2H-pyran-4-yl)phenyl)sulfonamido)ethyl)piperidin-4-yl)methyl)-1H-1,2,3-triazol-4-yl)-5-fluoro-1H-indole-2-carboxylate]",69
13,"Cc1noc(C)c1-c1ccc(S(=O)(=O)NCCN2CCC(Cn3cc(-c4c(C(=O)OCC(C)C)[nH]c5ccc(F)cc45)nn3)CC2)cc1 [AB1130, isobutyl 3-(1-((1-(2-((4-(3,5-dimethylisoxazol-4-yl)phenyl)sulfonamido)ethyl)piperidin-4-yl)methyl)-1H-1,2,3-triazol-4-yl)-5-fluoro-1H-indole-2-carboxylate]",49

# Same assay, conditions: compound at 1 μM; ATP 10 μM
row,SMILES,inhibition at 1 µM [%]
1,"CC(C)COC(=O)c1[nH]c2ccc(F)cc2c1-c1cn(CC2CCN(Cc3ccc(-c4cccc(C(C)C)c4)c(Cl)c3)CC2)nn1 [AB758, Isobutyl 3-(1-((1-((2-chloro-3′-isopropyl-[1,1′-biphenyl]-4-yl)methyl)piperidin-4-yl)methyl)-1H-1,2,3-triazol-4-yl)-5-fluoro-1H-indole-2-carboxylate]",17
2,"CC(C)COC(=O)c1[nH]c2ccc(F)cc2c1-c1cn(CC2CCN(Cc3ccc(OCC(C)C)c(Cl)c3)CC2)nn1 [AB760, Isobutyl 3-(1-((1-(3-chloro-4-isobutoxybenzyl)piperidin-4-yl)methyl)-1H-1,2,3-triazol-4-yl)-5-fluoro-1H-indole-2-carboxylate]",15
3,"CC(C)COC(=O)c1[nH]c2ccc(F)cc2c1-c1cn(CC2CCN(CCNS(=O)(=O)c3ccc4c(c3)CCO4)CC2)nn1 [AB930, isobutyl 3-(1-((1-(2-((2,3-dihydrobenzofuran)-5-sulfonamido)ethyl)piperidin-4-yl)methyl)-1H-1,2,3-triazol-4-yl)-5-fluoro-1H-indole-2-carboxylate]",45
4,CC(C)COC(=O)c1[nH]c2ccc(F)cc2c1-c1cn(CC2CCN(S(=O)(=O)c3ccc(C(C)(C)C)cc3)CC2)nn1 [AB938],5
5,"CC(C)COC(=O)c1[nH]c2ccc(F)cc2c1-c1cn(CC2CCN(S(=O)(=O)c3ccc4c(c3)OCC4)CC2)nn1 [AB939, isobutyl 3-(1-((1-((2,3-dihydrobenzofuran-6-yl)sulfonyl)piperidin-4-yl)methyl)-1H-1,2,3-triazol-4-yl)-5-fluoro-1H-indole-2-carboxylate]",4

# Same assay, conditions: inhibition of CK2 activity; ATP 10 μM
row,SMILES,IC50 [nM]
1,"CC(C)COC(=O)c1[nH]c2ccc(F)cc2c1-c1cn(CC2CCN(CCNS(=O)(=O)N3CCC(Cc4ccccc4)CC3)CC2)nn1 [AB918, isobutyl 3-(1-((1-(2-((4-benzylpiperidine)-1-sulfonamido)ethyl)piperidin-4-yl)methyl)-1H-1,2,3-triazol-4-yl)-5-fluoro-1H-indole-2-carboxylate]",400
2,"CC(C)COC(=O)c1[nH]c2ccc(F)cc2c1-c1cn(CC2CCN(CCNS(=O)(=O)N3CCC(c4ccccc4)CC3)CC2)nn1 [AB929, isobutyl 5-fluoro-3-(1-((1-(2-((4-phenylpiperidine)-1-sulfonamido)ethyl)piperidin-4-yl)methyl)-1H-1,2,3-triazol-4-yl)-1H-indole-2-carboxylate]",58
3,"CCC(C)c1ccc(S(=O)(=O)NCCN2CCC(Cn3cc(-c4c(C(=O)OCC(C)C)[nH]c5ccc(F)cc45)nn3)CC2)cc1 (stereo not shown) [AB931, isobutyl 3-(1-((1-(2-((4-(sec-butyl)phenyl)sulfonamido)ethyl)piperidin-4-yl)methyl)-1H-1,2,3-triazol-4-yl)-5-fluoro-1H-indole-2-carboxylate]",100
4,"CC(C)COC(=O)c1[nH]c2ccc(F)cc2c1-c1cn(CC2CCN(CCNS(=O)(=O)c3ccc(Oc4ccccc4)cc3)CC2)nn1 [AB933, isobutyl 5-fluoro-3-(1-((1-(2-((4-phenoxyphenyl)sulfonamido)ethyl)piperidin-4-yl)methyl)-1H-1,2,3-triazol-4-yl)-1H-indole-2-carboxylate]",62
5,"CC(C)COC(=O)c1[nH]c2ccc(F)cc2c1-c1cn(CC2CCN(CCNS(=O)(=O)Cc3ccc(C(F)(F)F)cc3)CC2)nn1 [AB935, isobutyl 5-fluoro-3-(1-((1-(2-(((4-(trifluoromethyl)phenyl)methyl)sulfonamido)ethyl)piperidin-4-yl)methyl)-1H-1,2,3-triazol-4-yl)-1H-indole-2-carboxylate]",49
6,"CC(C)COC(=O)c1[nH]c2ccc(F)cc2c1-c1cn(CC2CCN(CCNS(=O)(=O)Cc3ccc(Cl)cc3)CC2)nn1 [AB936, isobutyl 3-(1-((1-(2-(((4-chlorophenyl)methyl)sulfonamido)ethyl)piperidin-4-yl)methyl)-1H-1,2,3-triazol-4-yl)-5-fluoro-1H-indole-2-carboxylate]",550
7,"CC(C)COC(=O)c1[nH]c2ccc(F)cc2c1-c1cn(CC2CCN(CCNS(=O)(=O)Cc3cccc(Cl)c3)CC2)nn1 [AB937, isobutyl 3-(1-((1-(2-(((3-chlorophenyl)methyl)sulfonamido)ethyl)piperidin-4-yl)methyl)-1H-1,2,3-triazol-4-yl)-5-fluoro-1H-indole-2-carboxylate]",800
8,"CC(C)COC(=O)c1[nH]c2ccc(F)cc2c1-c1cn(CC2CCN(CCNS(=O)(=O)Cc3ccc(Br)cc3)CC2)nn1 [AB1030, isobutyl 3-(1-((1-(2-(((4-bromophenyl)methyl)sulfonamido)ethyl)piperidin-4-yl)methyl)-1H-1,2,3-triazol-4-yl)-5-fluoro-1H-indole-2-carboxylate]",54
9,"CC(C)COC(=O)c1[nH]c2ccc(F)cc2c1-c1cn(CC2CCN(CCNS(=O)(=O)Cc3cccc(Br)c3)CC2)nn1 [AB1031, isobutyl 3-(1-((1-(2-(((3-bromophenyl)methyl)sulfonamido)ethyl)piperidin-4-yl)methyl)-1H-1,2,3-triazol-4-yl)-5-fluoro-1H-indole-2-carboxylate]",150
10,CC(C)COC(=O)c1[nH]c2ccc(F)cc2c1-c1cn(CC2CCN(CCNS(=O)(=O)c3ccc(-c4ccccc4CN4CCOCC4)cc3)CC2)nn1 [AB1075],79
